Each structure is given as a SMILES string.

The IC50 is the concentration at which inhibition is half-maximal. Lower therefore signals greater potency.

T1 sequence (P30291 299-569 limits assumed): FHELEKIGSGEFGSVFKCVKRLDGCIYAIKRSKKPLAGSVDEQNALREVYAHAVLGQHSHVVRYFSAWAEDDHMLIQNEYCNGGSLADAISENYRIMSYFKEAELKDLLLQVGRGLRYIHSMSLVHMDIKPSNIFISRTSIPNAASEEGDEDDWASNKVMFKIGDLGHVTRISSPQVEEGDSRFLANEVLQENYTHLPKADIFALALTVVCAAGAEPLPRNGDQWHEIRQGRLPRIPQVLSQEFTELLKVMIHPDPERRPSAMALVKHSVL

One test addresses T1, Wee1 kinase domain (Homo sapiens, UniProt P30291).
T1 construct: Wee1 kinase domain was purchased from Carna (catalog #05-177); purchased Carna 05-177
The test can be described thus: Wee1 Kinase Biochemical Assay (ADP-Glo). The following applies: Wee1 kinase domain, 15 uM ATP, ADP-Glo. Here is the method: Wee1 Kinase Biochemical Assay Protocol
Wee1 kinase domain was purchased from Carna (catalog #05-177). Wee1 kinase activity was determined with Poly(Lys,Tyr 4:1) hydrobromide as a substrate (Sigma-Aldrich) and by measuring ADP production using the ADP-Glo Kinase Assay kit (Promega) following the manufacturer's instructions. The kinase reaction was performed using the following conditions:
Buffer: 40 mM Tris-HCl, 20 mM magnesium chloride, supplemented with 0.1 mg/mL bovine serum albumin and 2 mM DTT. The final reaction mix contained 1 nM Wee1 enzyme, 15 uM ATP, and 2 ng/mL Poly(Lys,Tyr 4:1) hydrobromide substrate. The reaction time was 4 hours at 25° C.
The ADP-Glo signal was measured using the Envision plate reader and the percentage inhibition of kinase activity calculated for each inhibitor tested. Percent inhibition of Wee1 kinase activity was calculated based on the following formula.
[formula] • SSample: the signal of compounds • SHigh Ctrl: the signal of high control (DMSO) • SLow Ctrl: the signal of low control (positive control Wee1 inhibitor at saturating concentration)
`CC1(C)C[C@H]2N(c3cccc(N=S(C)(C)=O)n3)c3nc(Nc4ccc([C@@]5(C)CCNC5)cc4)ncc3[C@@]2(C)CO1` (single isomer, unassigned) [Example 174] came in with an IC50 of 10 to 100 nM.
With `CNCc1cccc(N2c3nc(Nc4ccc([C@@]5(C)CCN(C)C5=O)cc4)ncc3[C@]3(C)COC(C)(C)C[C@H]23)n1` (single isomer, unassigned) [Example 79], the IC50 fell in the range of 100 to 1000 nM.
Compound `Cc1cc(Nc2ncc3c(n2)N(c2cccc(N4C(=O)OC[C@@H]4C)n2)[C@H]2CC(C)(C)OC[C@@]32C)ccc1O[C@@H]1CCNC1` (single isomer, unassigned) [Example 336] gave an IC50 of 10 to 100 nM.
Still for that read-out and setting: the value for `CN1CCC(n2ccc(Nc3ncc4c(n3)N(c3cccc(N=S(C)(C)=O)n3)[C@@H]3CC(C)(C)OC[C@]43C)n2)CC1` (single isomer, unassigned) [Example 229] was 10 to 100 nM; that for `CN1CC[C@@H](Oc2ccc(Nc3ncc4c(n3)N(c3cccc(N=S(C)(C)=O)n3)[C@H]3CC(C)(C)OC[C@@]43C)cc2)C1` (single isomer, unassigned) [Example 160] was 100 to 1000 nM; that for `CNCc1cccc(N2c3nc(Nc4ccc([C@@H]5CCCO5)cc4)ncc3C3(C)COC(C)(C)C[C@H]23)n1` (single isomer, unassigned) [Example 57] was 10 to 100 nM.
Same read-out and setting: the value for `Cc1cc(Nc2ncc3c(n2)N(c2cccc(N4C(=O)OC[C@@H]4C)n2)[C@H]2CC(C)(C)OC[C@@]32C)ccc1N1C[C@H]2C[C@@H]1CN2C` (single isomer, unassigned) [Example 288] was 10 to 100 nM.
The same measure, in the same setting: the value for `CNCc1cccc(N2c3nc(Nc4ccc(N5CCC(F)(F)CC5)cc4)ncc3[C@]3(C)COC(C)(C)C[C@H]23)n1` (single isomer, unassigned) [Example 15] was 10 to 100 nM.

Still in this test, the particulars now being: class symbols; 1 nM Wee1 enzyme, 15 uM ATP, 4 hours at 25° C.
Consider `CN1C[C@@H]2C[C@H]1CN2c1ccc(Nc2ncc3c(n2)N(c2cccc(C4(O)CC4)n2)[C@H]2CC(C)(C)OC[C@@]32C)cc1` [Example 645, 1-(6-((4bS,8aS)-4b,7,7-trimethyl-2-((4-((1S,4S)-5-methyl-2,5-diazabicyclo[2.2.1]heptan-2-yl)phenyl)amino)-4b,7,8,8a-tetrahydropyrano[3′,4′:4,5]pyrrolo[2,3-d]pyrimidin-9(5H)-yl)pyridin-2-yl)cyclopropan-1-ol], for which the IC50 lay within 100 to 1000 nM.
Consider `CN(C)Cc1cccc(N2c3nc(Nc4ccc(C(C)(C)C(=O)O)cc4)ncc3[C@]3(C)COC(C)(C)C[C@H]23)n1` [Example 610, 2-(4-(((4bS,8aS)-9-(6-((dimethylamino)methyl)pyridin-2-yl)-4b,7,7-trimethyl-4b,5,7,8,8a,9-hexahydropyrano[3′,4′:4,5]pyrrolo[2,3-d]pyrimidin-2-yl)amino)phenyl)-2-methylpropanoic acid], for which the IC50 is not below 1000 nM.
The same measure, in the same setting: with `CNC1(c2cccc(N3c4nc(Nc5ccc(N6CCOCC6)cc5)ncc4[C@]4(C)COC(C)(C)C[C@H]34)n2)CC1` (single isomer, unassigned) [Example 544] the figure was 100 to 1000 nM; with `CNCc1cccc(N2c3nc(Nc4ccc(N5CCOCC5)cc4)ncc3[C@]3(C)COCC[C@H]23)n1` (single isomer, unassigned) [Example 573], 100 to 1000 nM.
The same measure, in the same setting: the value for `CC1(C)C[C@@H]2N(c3cccc(N4CCCC4=O)n3)c3nc(Nc4ccc([C@@H]5CCNC5)cc4)ncc3[C@]2(C)CO1` [Example 633, 1-(6-((4bS,8aS)-4b,7,7-trimethyl-2-((4-((S)-pyrrolidin-3-yl)phenyl)amino)-4b,7,8,8a-tetrahydropyrano[3′,4′:4,5]pyrrolo[2,3-d]pyrimidin-9(5H)-yl)pyridin-2-yl)pyrrolidin-2-one] was 10 to 100 nM.
Same read-out and setting: the value for `CC1(C)C[C@H]2N(c3cccc(N=S(C)(C)=O)n3)c3nc(Nc4ccc(N5CCN6CCC5C6)cc4)ncc3[C@@]2(C)CO1` (single isomer, unassigned) [Example 511] was less than 10 nM.
On to `CC1(C)C[C@@H]2N(c3cccc(C(C)(C)N)n3)c3nc(Nc4ccc(N5CCOCC5)cc4)ncc3[C@]2(C)CO1` (single isomer, unassigned) [Example 568], for which the IC50 lay in the range of 10 to 100 nM.

These data come from patent publication US20260166039A1 (SCHRÖDINGER, INC., priority 2022, published 2026).
